Experiments:
[1] = system: glucagon levels in hepatic portal blood; test: Glucagon levels in hepatic portal blood of fasted rats (RIA); format: in vivo, rat
Procedure: (§1) In this evaluation the procedures described by W. A. Murphy et al. Endocrinology 109:491-495 (1980), were employed.
(§2) For measurement of effects on insulin and glucagon levels, rats were fasted 27-30 hours and anesthetized with NEMBUTAL® (5 mg per 100 g body wt). Exactly 21 minutes after NEMBUTAL® injection 0.5 mL of saline or saline containing test peptide was injected into the jugular vein over a 1 minute period. Five minutes later, 3.5 mL of blood were quickly drawn from the hepatic portal vein after rapid laparotomy. Blocking effects of analog on exogenous somatostatin were examined by simultaneous injection of both peptides. Plasma insulin levels were determined using matched insulin RIA kits purchased from Cambridge Nuclear, Billerica, MA. Plasma glucagon was determined using Unger 30K antibody and ^125 I-glucagon (Cambridge Nuclear) as the tracer.

[2] = system: insulin levels in hepatic portal blood; test: Insulin levels in hepatic portal blood of fasted rats (RIA); format: in vivo, rat
Procedure: as §1, §2

GH levels in the rat = test: Growth hormone (GH) levels in NEMBUTAL-anesthetized, stimulated rats (RIA); format: in vivo; details: mean ± SE
Procedure: as §1
In growth hormone (GH) experiments, male rats (Charles Rivers) were anesthetized with NEMBUTAL® (5 mg per 100 g/BW) which also served to maintain stimulated plasma GH levels. Exactly 30 minutes after the rats were anesthetized, 0.5 mL of saline or the test peptide in saline was administered as a sc bolus. A 1 mL blood sample was drawn from the jugular vein 15 minutes after the injection. For examining blocking effects of the analog on somatostatin, the cyclic peptide was given 5 minutes prior to somatostatin. GH levels were determined using NIADDKD rat GH RIA components.

## C[C@H](N)C(=O)NCC(=O)N[C@H]1CSSC[C@@H](C(=O)O)NC(=O)[C@H](CO)NC(=O)[C@H]([C@@H](C)O)NC(=O)[C@H](Cc2ccccc2)NC(=O)[C@H]([C@@H](C)O)NC(=O)[C@H](CCCCN)NC(=O)[C@H](Cc2c[nH]c3ccccc23)NC(=O)[C@H](Cc2ccccc2)NC(=O)[C@H](Cc2ccccc2)NC(=O)[C@H](CC(N)=O)NC(=O)[C@H](CCCCN)NC1=O [Somatostatin]
[1]; Table III Experiment 1, fasted rats, 0.4 μg/100 g iv, portal blood 5 min later, saline 80 ± 5
  Glucagon (Mean ± SE): 64 ± 3 pg/mL
[1]; Table III Experiment 1, fasted rats, 2.0 μg/100 g iv, saline 80 ± 5
  Glucagon (Mean ± SE): 46 ± 4 pg/mL
[1]; Table III Experiment 1, second saline set, fasted rats, 1.0 μg/100 g iv, saline 94 ± 9
  Glucagon (Mean ± SE): 78 ± 7 pg/mL
[1]; Table III Experiment 2, fasted rats, 1.0 μg/100 g iv, saline 45 ± 3
  Glucagon (Mean ± SE): 18 ± 7 pg/mL
[2]; Table III Experiment 1, fasted rats, 0.4 μg/100 g iv, portal blood 5 min later, saline 67 ± 11
  Insulin (Mean ± SE): 57 ± 3 μU/mL
[2]; Table III Experiment 1, fasted rats, 2.0 μg/100 g iv, saline 67 ± 11
  Insulin (Mean ± SE): 28 ± 11 μU/mL
[2]; Table III Experiment 1, second saline set, fasted rats, 1.0 μg/100 g iv, saline 46 ± 5
  Insulin (Mean ± SE): 11 ± 2 μU/mL
GH levels in the rat; Table I Experiment 1, fed rats, 0.2 μg/100 g body weight sc, blood 15 min after injection, saline 277 ± 40
  GH: 146 ± 14 ng/mL
GH levels in the rat; Table I Experiment 1, fed rats, 0.6 μg/100 g body weight sc, blood 15 min after injection, saline 277 ± 40
  GH: 78 ± 26 ng/mL
GH levels in the rat; Table I Experiment 2, fasted rats, 0.4 μg/100 g body weight, saline 403 ± 85
  GH: 107 ± 13 ng/mL
